Measured values published in paper PMC5874678, “Bryonolic Acid Blocks Cancer Cell Clonogenicity and Invasiveness through the Inhibition of Fatty Acid: Cholesteryl Ester Formation” (Biomedicines, 2018).

Columns and labels:
[1] = target: T1, cholesterol-5,6-epoxide hydrolase (ChEH) (Rattus norvegicus, UniProt Q9JJ46+Q9Z2Z8); assay: Cholesterol epoxide hydrolase (ChEH) inhibition assay; format: biochemical; conditions: 150 μg rat liver microsomal proteins, 10 and 20 μM [14C]α-CE, compounds 0.01 to 1000 μM
T1 construct: from tissue; host or cells: rat liver microsomes
T1 sequence (Q9JJ46 2-230 limits assumed): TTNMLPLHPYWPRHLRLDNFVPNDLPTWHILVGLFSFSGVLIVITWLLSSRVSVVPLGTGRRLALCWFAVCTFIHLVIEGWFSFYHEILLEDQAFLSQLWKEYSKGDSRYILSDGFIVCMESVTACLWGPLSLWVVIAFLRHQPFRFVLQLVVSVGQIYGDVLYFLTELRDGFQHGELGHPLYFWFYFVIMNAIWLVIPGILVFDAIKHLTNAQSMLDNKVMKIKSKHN
T1 sequence (Q9Z2Z8 1-471): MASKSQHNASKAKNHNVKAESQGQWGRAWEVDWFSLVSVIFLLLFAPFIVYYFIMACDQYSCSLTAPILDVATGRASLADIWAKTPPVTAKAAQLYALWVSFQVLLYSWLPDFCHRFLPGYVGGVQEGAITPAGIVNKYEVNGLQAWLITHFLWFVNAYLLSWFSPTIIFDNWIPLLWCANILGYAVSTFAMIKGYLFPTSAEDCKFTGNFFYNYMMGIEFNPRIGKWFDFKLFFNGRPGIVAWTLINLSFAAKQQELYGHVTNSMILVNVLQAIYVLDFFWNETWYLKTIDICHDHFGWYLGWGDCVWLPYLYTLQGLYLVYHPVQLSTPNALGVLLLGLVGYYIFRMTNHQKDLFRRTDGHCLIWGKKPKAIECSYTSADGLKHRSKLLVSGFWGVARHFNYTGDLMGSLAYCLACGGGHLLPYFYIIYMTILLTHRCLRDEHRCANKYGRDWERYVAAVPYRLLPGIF
Experimental: Inhibition of ChEH activity was measured as described previously on a whole-cell assay using MCF-7 cells [33]. […] Cells were treated for 24 h with 0.6 μM [^14C]α-CE.
The mixtures were incubated over a period of 0 to 30 min. The tubes were placed in ice cold distilled water to stop the reaction and the addition of 1.5 mL chloroform/methanol (2:1) and reaction buffer (500 mL) followed. After vortexing, the lower phase was aspirated and the residual aqueous phase was extracted with chloroform (1.5 mL). The organic extracts were combined and dried under a gentle stream of nitrogen, followed by suspension in ethanol (60 µL).
Samples were applied to TLC plates that had been heated previously for 1 h at 100 °C and were developed using ethyl acetate. The regions corresponding to authentic CE and cholestane-3β,5α,6β-triol standards were visualized by iodine vapour. Radioactive metabolites were visualized using a Storm apparatus (GE Healthcare) and quantified by densitometry with the software ImageQuant version 5.2 (GE Healthcare).

ERα = target: T2, ERα (Homo sapiens, UniProt P03372); assay: Oestrogen receptor competition binding assay, ERα; conditions: n.m. = no measurable inhibition of binding
T2 sequence (P03372 1-595): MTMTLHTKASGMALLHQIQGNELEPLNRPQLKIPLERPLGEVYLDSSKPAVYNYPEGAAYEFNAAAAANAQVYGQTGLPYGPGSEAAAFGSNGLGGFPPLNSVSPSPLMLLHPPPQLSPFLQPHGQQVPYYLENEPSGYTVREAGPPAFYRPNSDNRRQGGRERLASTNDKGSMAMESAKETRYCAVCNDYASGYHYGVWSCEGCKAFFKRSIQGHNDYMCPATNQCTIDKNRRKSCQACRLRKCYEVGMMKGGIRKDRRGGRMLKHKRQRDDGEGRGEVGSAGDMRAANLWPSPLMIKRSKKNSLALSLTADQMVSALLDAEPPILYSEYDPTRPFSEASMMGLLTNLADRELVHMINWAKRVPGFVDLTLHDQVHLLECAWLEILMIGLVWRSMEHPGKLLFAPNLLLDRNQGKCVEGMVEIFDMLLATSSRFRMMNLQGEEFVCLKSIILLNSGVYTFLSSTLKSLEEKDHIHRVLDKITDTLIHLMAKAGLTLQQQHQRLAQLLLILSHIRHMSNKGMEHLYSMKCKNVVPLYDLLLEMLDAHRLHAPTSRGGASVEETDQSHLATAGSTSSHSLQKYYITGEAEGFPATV
Experimental: (§1) Competition binding to ERα and ERβ was measured exactly as described previously.

[2] = target: T3, ACAT in NIH-3T3-CCK2R-E151A cells (3T3-EA) (Mus musculus, UniProt Q61263); assay: ACAT activity in intact 3T3-EA cells; format: cell-based; conditions: 24 h, [14C]cholesterol; for IC50: read-out: IC50, inhibition of ACAT activity in intact cells
T3 construct: endogenous in cells; host or cells: NIH-3T3-CCK2R-E151A (3T3-EA)
T3 sequence (Q61263 1-540): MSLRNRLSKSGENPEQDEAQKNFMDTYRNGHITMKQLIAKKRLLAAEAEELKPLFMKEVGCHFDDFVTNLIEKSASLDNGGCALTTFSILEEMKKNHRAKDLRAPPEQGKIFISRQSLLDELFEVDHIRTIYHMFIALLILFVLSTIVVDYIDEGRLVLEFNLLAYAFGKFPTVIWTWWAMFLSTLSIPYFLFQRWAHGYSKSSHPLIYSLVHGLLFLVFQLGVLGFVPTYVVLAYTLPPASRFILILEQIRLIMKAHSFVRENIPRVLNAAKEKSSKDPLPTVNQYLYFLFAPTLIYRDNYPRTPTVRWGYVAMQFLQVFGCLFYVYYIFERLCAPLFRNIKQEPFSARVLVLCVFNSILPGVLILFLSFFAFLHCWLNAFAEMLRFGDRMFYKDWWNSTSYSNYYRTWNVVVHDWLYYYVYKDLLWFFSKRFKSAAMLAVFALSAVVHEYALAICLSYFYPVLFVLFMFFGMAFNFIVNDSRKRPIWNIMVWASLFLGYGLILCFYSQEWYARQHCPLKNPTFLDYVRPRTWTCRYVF
Experimental: (§2) MCF-7, MB-231, U-87 and 3T3-EA cells were plated on six-well plates (40,000 cells/well). ACAT activity in intact cells was measured as described previously. Cells were preincubated for 15 min. with solvent vehicle or increasing concentrations of BrA ranging from 1 to 200 μM in complete medium. [^14C]Cholesterol (0.2 μCi/well) was added and the cells were incubated for 24 h. At the end of the incubation, intracellular and secreted lipids in the supernatant were extracted and then separated by TLC as described previously. Free and esterified cholesterol were identified using purified ^14C commercial standards and the radioactivity of each individual lipid was quantified using a phosphor screen (Storm; GE Healthcare, Chicago, IL, USA). ACAT activity is expressed as the percentage of the ACAT activity measured in the absence of inhibitors (cells treated with solvent vehicle).
(§3) Cells were plated on 6-well plates. […]. [^14C]cholesterol (0.2 μCi/well) was added and cells were incubated for 24 h. At the end of the incubation, intracellular lipids were extracted as described in [30] and then separated by TLC as described previously. Free and esterified cholesterol were identified using purified [^14C] standards and the radioactivity associated with each individual lipid was quantified using a Phosphoscreen (Storm; Molecular Dynamics). ACAT activity is expressed as the percentage of the ACAT activity measured in the absence of inhibitors (cells treated with solvent vehicle).

ACAT in MB-231 cells = target: T4, ACAT in MB-231 cells (Homo sapiens, UniProt P35610); assay: ACAT activity in intact MB-231 cells; format: cell-based; conditions: MB-231, 24 h, [14C]cholesterol; for IC50: read-out: IC50, inhibition of ACAT activity in intact cells
T4 construct: endogenous in cells; host or cells: MCF-7, MDA-MB-231, U-87
T4 sequence (P35610 1-550): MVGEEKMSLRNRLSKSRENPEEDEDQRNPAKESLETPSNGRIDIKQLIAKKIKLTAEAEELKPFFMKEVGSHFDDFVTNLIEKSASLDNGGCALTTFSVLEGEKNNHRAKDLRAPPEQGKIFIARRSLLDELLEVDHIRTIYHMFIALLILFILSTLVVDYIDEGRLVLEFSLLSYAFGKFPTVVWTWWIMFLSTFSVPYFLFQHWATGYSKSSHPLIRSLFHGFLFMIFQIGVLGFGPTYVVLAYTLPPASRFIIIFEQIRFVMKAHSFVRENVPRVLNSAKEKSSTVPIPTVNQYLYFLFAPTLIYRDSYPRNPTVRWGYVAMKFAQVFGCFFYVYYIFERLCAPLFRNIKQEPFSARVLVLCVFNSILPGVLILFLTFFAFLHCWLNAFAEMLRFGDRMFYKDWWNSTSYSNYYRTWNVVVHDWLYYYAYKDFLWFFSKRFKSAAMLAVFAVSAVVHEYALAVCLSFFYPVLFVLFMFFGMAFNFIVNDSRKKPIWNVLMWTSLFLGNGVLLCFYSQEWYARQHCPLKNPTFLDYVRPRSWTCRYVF
Experimental: as §2, §3

ACAT in U-87 cells = target: T5, ACAT in U-87 cells (Homo sapiens, UniProt P35610); assay: ACAT activity in intact U-87 cells; format: cell-based; conditions: U-87, 24 h, [14C]cholesterol; for IC50: read-out: IC50, inhibition of ACAT activity in intact cells
T5 construct: endogenous in cells; host or cells: MCF-7, MDA-MB-231, U-87
T5 sequence (P35610 1-550): T4 sequence (P35610 1-550)
Experimental: as §2, §3

ACAT in MCF-7 cells = target: T6, ACAT in MCF-7 cells (Homo sapiens, UniProt P35610); assay: ACAT activity in intact MCF-7 cells; format: cell-based; conditions: MCF-7, 24 h, [14C]cholesterol; for IC50: read-out: IC50, inhibition of ACAT activity in intact cells
T6 construct: endogenous in cells; host or cells: MCF-7, MDA-MB-231, U-87
T6 sequence (P35610 1-550): T4 sequence (P35610 1-550)
Experimental: as §2, §3

ERβ = ERβ (Homo sapiens, UniProt Q92731); assay: Oestrogen receptor competition binding assay, ERβ; conditions: n.m. = no measurable inhibition of binding
Experimental: as §1

[3] = tested on: MCF-7, MB-231, U-87 and 3T3-EA cells; assay: Clonogenic assay (colony formation); format: cell-based; conditions: Homo sapiens, MCF7, four tested cell lines, vs solvent vehicle, read-out: inhibition of cancer cell colony formation
Experimental: Following trypsinization of the cells, they were plated in tissue culture plates (60 mm) at a density of 500–1000 per plate. After adherence for 24 h, the drugs were added at the chosen final concentrations from freshly prepared stock solutions. The plates were washed twice with serum-free medium after 24 to 72 h incubation. Fresh medium was added and the plates were incubated at 37 °C until the colonies became visible. After incubation, the plates were washed with PBS and stained using Coomassie brilliant blue. The stained colonies were counted and are reported as the percentage of control cells (ethanol treated (0.01% (v/v)).

[4] = tested on: MCF-7, MB-231, U-87 and 3T3-EA cells; assay: Cell invasion assay (Matrigel-coated filters); format: cell-based
Experimental: Cells were added to six-well plates (40,000 cells/well) containing Dulbecco's Modified Eagle Medium (DMEM) and 10% FCS. Following incubation for 24 h, the cells were treated for a further 24 h in the presence of the test compounds, or else vehicle in DMEM and 2% Fetal Calf Serum (FCS). The cells were harvested and counted. Cells (20,000) were placed in serum-free DMEM on the surface of Nunc filters (8 mm diameter, […]; Nalgen Nunc International, Rochester, NY, USA). The filters were coated with growth factor-reduced Matrigel ([…] Matrigel; BD Biosciences, San Jose, CA, USA) in the presence of the test compounds or else vehicle. The base of the filter was filled with 10% FCS/DMEM. Following incubation for 48 h at 37 °C, cells which had invaded the Matrigel and attached themselves to the base of the filter were fixed, stained with Giemsa stain and counted microscopically.

Sequence of ERβ (Q92731 whole entry, species assumed): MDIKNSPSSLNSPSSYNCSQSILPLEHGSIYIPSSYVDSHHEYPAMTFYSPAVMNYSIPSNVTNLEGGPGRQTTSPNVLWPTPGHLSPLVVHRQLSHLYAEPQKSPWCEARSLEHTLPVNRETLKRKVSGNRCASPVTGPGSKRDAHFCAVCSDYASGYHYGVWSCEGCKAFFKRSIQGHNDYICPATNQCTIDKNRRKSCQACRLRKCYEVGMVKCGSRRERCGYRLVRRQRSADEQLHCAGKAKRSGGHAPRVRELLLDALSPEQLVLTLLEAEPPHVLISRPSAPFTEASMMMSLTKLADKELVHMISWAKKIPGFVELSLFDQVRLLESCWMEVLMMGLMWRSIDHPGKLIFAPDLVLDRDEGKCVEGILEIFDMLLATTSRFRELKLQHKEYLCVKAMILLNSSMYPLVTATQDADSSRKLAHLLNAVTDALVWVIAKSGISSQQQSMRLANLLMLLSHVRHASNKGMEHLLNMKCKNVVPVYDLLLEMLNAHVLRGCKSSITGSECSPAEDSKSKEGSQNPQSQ

| SMILES | IC50, ChEH inhibition [1] | IC50, competition with radiolabelled 17β-estradiol binding to ERα (ERα) | IC50 [2] [µM] | IC50 (ACAT in MB-231 cells) [µM] | IC50 (ACAT in U-87 cells) [µM] | IC50 (ACAT in MCF-7 cells) [µM] | IC50, competition with radiolabelled 17β-estradiol binding to ERβ (ERβ) | IC50, ChEH inhibition ([1]; listed as BrA) | inhibition at 25 µM [3] [%] | inhibition of cell invasiveness ([4]; 25 μM, 24 h pre-treatment, 48 h invasion, four cell lines) | effect of added cholesteryl oleate on inhibition of cell invasiveness ([4]; cholesteryl oleate 4 µg/mL, MB-231 and U87 cells) | IC50, inhibition of ACAT activity in intact cells [2] | IC50, inhibition of ACAT activity in intact cells (ACAT in MB-231 cells) | IC50, inhibition of ACAT activity in intact cells (ACAT in U-87 cells) | IC50, inhibition of ACAT activity in intact cells (ACAT in MCF-7 cells) |
| --- | --- | --- | --- | --- | --- | --- | --- | --- | --- | --- | --- | --- | --- | --- | --- |
| C[C@]12CC[C@@H]3c4ccc(O)cc4CC[C@H]3[C@@H]1CC[C@@H]2O [E2, 17β-estradiol] | n.m. |  |  |  |  |  |  |  |  |  |  |  |  |  |  |
| C=C(C)[C@@H]1CC[C@]2(C(=O)O)CC[C@]3(C)[C@H](CC[C@@H]4[C@@]5(C)CC[C@H](O)C(C)(C)[C@@H]5CC[C@]43C)[C@@H]12 [betulinic acid] | n.m. | n.m. | 60.2 ± 8 | 58.3 ± 8.1 | 61.4 ± 9.4 | 53.7 ± 4.2 | n.m. |  |  |  |  |  |  |  |  |
| CC1(C)[C@@H](O)CC[C@]2(C)C3=C(CC[C@@H]12)[C@@]1(C)CC[C@@]2(C)CC[C@@](C)(C(=O)O)C[C@H]2[C@]1(C)CC3 [bryonolic acid, D-C friedoolean-8-en-3β-ol-29 oic acid] | n.m. | n.m. | 19.4 ± 7.6 | 29.5 ± 5.5 | 17.5 ± 4.8 | 22.5 ± 3.7 | n.m. | does not inhibit ChEH | > 50 | observable in the four cell lines | blocked the inhibition of cell invasiveness triggered by BrA |  |  |  |  |
| CCCCCCCCCC[Si](C)(C)CCC(=O)NC(Cc1ccc(C)cc1)c1ccccc1 (centres unmarked) [sah 58-035, 3-[decyldimethylsilyl]-N-[2-(4-methylphenyl)-1-phenylethyl]-propanamide] |  |  | 7.4 ± 1.8 | 9.1 ± 1.4 | 9.2 ± 2.2 | 5.1 ± 0.5 |  |  |  |  |  |  |  |  |  |
| C[C@H]1[C@H](C)CC[C@]2(C(=O)O)CC[C@]3(C)C(=CC[C@@H]4[C@@]5(C)CC[C@H](O)C(C)(C)[C@@H]5CC[C@]43C)[C@H]12 [ursolic acid] | n.m. |  |  |  |  |  | n.m. |  |  |  |  | n.m | n.m. | n.m. | n.m. |
